One test concerns Sarcoma 180 cells. The test can be described thus: Antitumor action in ICR mice inoculated intraperitoneally with Sarcoma 180 cells (life-span prolongation, 60-day survivors). Type of test: in vivo. To be noted: for responders at 0.33 mg: read-out: 60th day: No. of survived mice/No. of tested mice (converted); for response vs control in vivo at 0.33 mg: read-out: Life-span prolongation ratio (T/C %).

Another test deals with tumor. To be noted: background; cited from earlier work.
Test [1] relates to platelet. To be noted: cited from earlier work.
The next test relates to MM46 cells. Put plainly: Antitumor action in C3H/He mice inoculated intraperitoneally with MM46 cells (life-span prolongation, 60-day survivors). Type of test: in vivo. The following applies: for responders at 0.25 mg: 1440 h, read-out: 60th day: No. of survived mice/No. of tested mice (converted); for response vs control in vivo at 0.25 mg: read-out: Life-span prolongation ratio (T/C %).

Test [2] has as its system PAF-induced platelet aggregation. Put plainly: Inhibition action against PAF in platelet aggregation (Washed PRP). Type of test: cell-based, male rabbit. The following applies: Oryctolagus cuniculus. On the procedure:
Blood was collected from a male rabbit, using a syringe containing 3.15% of citric acid (at a ratio of 1 part to 9 parts of blood) as an anticoagulant and centrifuged at 1,000 r.p.m. at room temperature for 10 minutes to obtain platelet rich plasma (PRP). This PRP was further centrifuged at 1,400 r.p.m. for 15 minutes to obtain platelet pellet, which was then suspended in Ca^++ -free Tyrode (containing 0.25% of gelatin) to prepare Washed PRP. 250 μl of the Washed PRP was stirred at 37° C. for 2 minutes, and admixed with 25 μl of 0.2-0.5 mM Ca^++ solution, followed by stirring for another 30 seconds. Then, a test compound was added to the mixture to a concentration of 3×10^-5 M and after further stirring for 2 minutes, 3×10^-7 M of PAF was added to the mixture. Platelet aggregation was measured by using a platelet aggregometer (manufactured by Rika Denki Co. in Japan). The activity of the test compound was determined from an inhibition ratio for maximum transmission (i.e. maximum aggregation ratio) by PAF in the control PRP.
Inhibition activity against PAF in platelet aggregation was assayed under the same conditions as Test Example 5.

Test [3] has as its system human myelogenous leukemia cells HL-60. The test can be described thus: Multiplication-inhibiting effect against human myelogenous leukemia cells HL-60. To be noted: Table 4, read-out: Multiplication inhibition against HL-60 (IC50). Type of test: cell-based. On the procedure:
Shown in Table 4 is the multiplication-inhibiting effect (IC50) of the compound of the present invention against human myelogenous leukemia cells HL-60. The assay was conducted according to the method of R. Gallo et al.: Blood, Vol 54, 713 (1979).

Test [4] relates to platelet. The test can be described thus: Effect on platelet: platelet aggregation (PAF activity) in platelet rich plasma. Type of test: cell-based, male rabbit. To be noted: Oryctolagus cuniculus, Table 5, rabbit PRP, 400,000 cells/1 μl, read-out: PAF activity EC50 (drug concentration causing 50% platelet aggregation). On the procedure: This PRP was further centrifuged at 3,000 r.p.m. for 15 minutes to obtain platelet poor plasma (PPP). By using this PPP, the PRP was diluted and so adjusted as to have a constant platelet concentration (400,000 cells/1 μl). […] Platelet aggregation was measured by using a platelet aggregometer (manufactured by Rika Denki Co. in Japan).

The mark [5] stands for this setting: Sarcoma-180, 1440 h, Table 1, 0.33 mg/mouse ip, three times.
The mark [6] stands for this setting: Table 1, 1×10^5 Sarcoma 180 cells ip, 0.33 mg/mouse ip, three times (1 hour, 1 day, 2 days after inoculation), only mice surviving less than 60 days.
The mark [7] stands for this setting: Mus musculus, ip, Table 8, same conditions as Test Example 2-i.
Where [8] appears, read: Table 10, same conditions as Test Example 5, read-out: Inhibition ratio.
The mark [9] stands for this setting: Table 6, test compound 3×10^-5 M, PAF 3×10^-7 M, read-out: Inhibition ratio.
[10] abbreviates: Mus musculus, Sarcoma-180, ip, 1440 h, Table 7, same conditions as Test Example 1-i.
The mark [11] stands for this setting: Mus musculus, Sarcoma-180, ip, Table 7, same conditions as Test Example 1-i.

Values after ≈ are worked out from the molar mass of the structure shown. Where two headings read alike, the source gives them in different places.

Experimental for MM46 cells: (i) C3H/He mice (a group consisting of five mice) were inoculated intraperitoneally with 1×10^4 MM46 cells per mouse, and each mouse was intraperitoneally given 0.25 mg of drug for consecutive 4 days, starting from the second day after the inoculation.
(ii) In the above test, each mouse was inoculated intraperitoneally with 1×10^5 MM46 cells and 0.25 mg of drug was given intraperitoneally to each mouse for consecutive 4 days, starting from the second day after the inoculation.
The assay was carried out under the same conditions as Test Example 2-i.
Experimental for Sarcoma 180 cells: The assay was carried out under the same conditions as Test Example 1-i.

With `CCCCCCCCCCCCCCCCCCNC(=O)OCC(COP(=O)([O-])OCC[N+](C)(C)C)OC` (stereo not drawn) [VI, reference compound], the responders at 0.33 mg in the test with Sarcoma 180 cells (setting [5]) is 0%. Besides, the response vs control in vivo at 0.33 mg with Sarcoma 180 cells (setting [6]) turned out to be 202%. The “antitumor action (in words)” value in the test with tumor is “not sufficient”.

Consider `CCCCCCCCCCCCCCCCCCOCC(COP(=O)([O-])OCC[N+](C)(C)C)OC(=O)CCC` (stereo not drawn) [Compound (IV), reference compound], for which, in the test on Sarcoma 180 cells (setting [5]), the responders at 0.33 mg is 0%. Besides, the response vs control in vivo at 0.33 mg in the test on Sarcoma 180 cells (setting [6]) was 109%. In addition, in the test on platelet [1] (Thrombosis Research, 30, 143 (1983)), the “platelet activating action relative to that of PAF (II)” value is “about 1/10”.

For `CCCCCCCCCCCCCCCCCCOCC(COP(=O)([O-])OCCCCCCCCCC[N+](C)(C)C)OC(=S)NC` (stereo not drawn) [Example 9, 2-Methylthiocarbamoyloxy-3-octadecyloxypropyl 10-trimethylammoniodecyl phosphate], in the test on MM46 cells (setting [7]), the responders at 0.25 mg was 40% and the response vs control in vivo at 0.25 mg worked out at 170%. For the same compound, the inhibition at 30 µM in test [2] (setting [8]) came out at 55%.

On to `CCCCCCCCCCCCCCCCCCOCC(COP(=O)([O-])OCCC[N+](C)(C)C)OC(=O)CC(C)=O` (stereo not drawn) [Reference compound 2, reference compound], for which the half-inhibitory concentration (IC50) – broadly, the concentration at which inhibition is half-maximal – in test [3] is 11 µg/mL (≈ 18.1 µM). The inhibition at 30 µM in test [2] (setting [9]) was determined as 0%.

Turning to `CCCCCCCCCCCCCCCCCCOCC(COP(=O)([O-])OCCCCCCCCCC[N+](C)(C)C)OC(=O)NC` (stereo not drawn) [Example 8, 2-Methylcarbamoyloxy-3-octadecyloxypropyl 10-trimethylammoniodecyl phosphate], in test [2] (setting [8]), the inhibition at 30 µM was 100%.

Take `CCCCCCCCCCCCCCCCCCC(=O)COCC(COP(=O)([O-])OCCCCCCCCCC[N+](C)(C)C)OC` (stereo not drawn) [Example 6, 2-Methoxy-3-(2-oxoeicocyloxy)propyl 10-trimethylammoniodecyl phosphate]: the responders at 0.33 mg with Sarcoma 180 cells (setting [10]) was 0%. Moreover, the response vs control in vivo at 0.33 mg with Sarcoma 180 cells (setting [11]) is 242%. Also, in the test with MM46 cells (setting [7]), the responders at 0.25 mg is 80% and the response vs control in vivo at 0.25 mg was determined as 145%.

Consider `CCCCCCCCCCCCCCCCCCOCC(COP(=O)([O-])OCCCCCCCC[N+](C)(C)C)OC(=O)NC` (stereo not drawn) [Example 44, 2-Methylcarbamoyloxy-3-octadecyloxypropyl 8-trimethylammoniooctyl phosphate], for which, in test [2] (setting [8]), the inhibition at 30 µM was found to be 100%.

Regarding `COC(COCCCCCCCCCCCCC1CCCCC1)COP(=O)([O-])OCCCCCCCCCC[N+](C)(C)C` (stereo not drawn) [Example 33, 3-(12-Cyclohexyldodecyloxy)-2-methoxypropyl 10-trimethylammoniodecyl phosphate], the responders at 0.33 mg with Sarcoma 180 cells (setting [10]) is 0%. Moreover, the response vs control in vivo at 0.33 mg with Sarcoma 180 cells (setting [11]) amounted to 266%. In addition, in test [2] (setting [8]), the inhibition at 30 µM stood at 100%.

Consider `CCCCCCCCCCCCCCCCCCOCC(COP(=O)([O-])OCCCCCCCCCC[N+](C)(C)C)OC` (stereo not drawn) [Example 10, 2-Methoxy-3-octadecyloxypropyl 10-trimethylammoniodecyl phosphate], for which, in the test with Sarcoma 180 cells (setting [10]), the responders at 0.33 mg is 0%. Besides, in the test on Sarcoma 180 cells (setting [11]), the response vs control in vivo at 0.33 mg is 212%. Besides, in the test on MM46 cells (setting [7]), the responders at 0.25 mg is 40% and the response vs control in vivo at 0.25 mg is 249%. Besides, the inhibition at 30 µM in test [2] (setting [8]) came out at 53%.

As to `COC(COCCCCCCCCCCCCCCC(C)C)COP(=O)([O-])OCCCCCCCCCC[N+](C)(C)C` (stereo not drawn) [Example 39, 2-Methoxy-3-(15-methylhexadecyloxy)propyl 10-trimethylammoniodecyl phosphate], the responders at 0.33 mg in the test on Sarcoma 180 cells (setting [10]) is 0%. For the same compound, the response vs control in vivo at 0.33 mg with Sarcoma 180 cells (setting [11]) amounted to 265%. Besides, the inhibition at 30 µM in test [2] (setting [8]) stood at 69%.

As for `CCCCCCCCCCCCCCCCCCOCC(COP(=O)([O-])OCC[N+](C)(C)C)OC(=O)CC(C)=O` (stereo not drawn) [Reference compound 1, reference compound], the 50% inhibitory concentration (IC50) in test [3] was 6.6 µg/mL (≈ 11.1 µM). Moreover, the inhibition at 30 µM in test [2] (setting [9]) was 0%.

For `CC(=O)CC(=O)OC(COCCCCCCCCCCCCCCC(C)C)COP(=O)([O-])OCCCCCCCCCC[N+](C)(C)C` (stereo not drawn) [Example 43, 2-(Acetoacetyloxy)-3-(15-methylhexadecyloxy)propyl 10-trimethylammoniodecylphosphate], the responders at 0.33 mg in the test with Sarcoma 180 cells (setting [10]) is 40%. Besides, in the test on Sarcoma 180 cells (setting [11]), the response vs control in vivo at 0.33 mg was 128%. Also, in the test with MM46 cells (setting [7]), the responders at 0.25 mg was 0% and the response vs control in vivo at 0.25 mg is 232%. Also, the inhibition at 30 µM in test [2] (setting [8]) is 100%.

For `CCCCCCCCCCCCCCCCCCNC(=O)OCC(COP(=O)([O-])OCCCCCCCCCC[N+](C)(C)C)OC` (stereo not drawn) [Example 11, 3-Octadecylcarbamoyloxy-2-methoxypropyl 10-trimethylammoniodecyl phosphate], the responders at 0.33 mg with Sarcoma 180 cells (setting [10]) was 0%. Also, in the test on Sarcoma 180 cells (setting [11]), the response vs control in vivo at 0.33 mg is 253%. In the test with MM46 cells (setting [7]), the responders at 0.25 mg was 40% and the response vs control in vivo at 0.25 mg was 186%.

In the case of `CCCCCCCCCCCCCCCCCCOCC(COP(=O)([O-])OCCCCCCCCCC[N+](C)(C)C)OC(=O)CC(C)=O` (stereo not drawn) [Example 3, 2-(Acetoacetyloxy)-3-(octadecyloxy)propyl 10-trimethylammoniodecyl phosphate], the “life-span prolongation ratio (T/C %)” value with Sarcoma 180 cells (1 mg/mouse, otherwise as Test Example 1-i) is reported as 369%. For the same compound, the “number of survived mice on the 60th day” value with Sarcoma 180 cells (1 mg/mouse, group of 5 mice) was 2 mice. In addition, in the test with Sarcoma 180 cells (setting [5]), the responders at 0.33 mg was 40%. Moreover, the response vs control in vivo at 0.33 mg in the test on Sarcoma 180 cells (setting [6]) stood at 326%. Further, the responders at 0.25 mg in the test with MM46 cells (Table 2, 1×10^4 MM46 cells, 0.25 mg/mouse ip, 4 days) is 80%. Further, the response vs control in vivo at 0.25 mg with MM46 cells (Mus musculus, ip, Table 2, 1×10^4 MM46 cells ip, 0.25 mg/mouse ip for consecutive 4 days from second day, only mice surviving less than 60 days) stood at 132%; in the test on MM46 cells (Mus musculus, ip, Table 3, 1×10^5 MM46 cells ip, 0.25 mg/mouse ip for consecutive 4 days, only mice surviving less than 60 days), 125%. For the same compound, the “60th day: No. of survived mice/No. of treated mice” value in the test on MM46 cells (Table 3, 1×10^5 MM46 cells, 0.25 mg/mouse ip, 4 days) is recorded as 4/5. Besides, in test [3], the IC50 amounted to 1.5 µg/mL. Further, in test [2] (setting [9]), the inhibition at 30 µM came to 72%.

As for `CCCCCCCCCCCCCCCCCCOCC(COP(=O)([O-])OCCCCCCCC[N+](C)(C)C)OC(=O)CC(C)=O` (stereo not drawn) [Example 29, 2-(Acetoacetoxy)-3-(octadecyloxy)propyl 8-trimethylammoniooctyl phosphate], the inhibition at 30 µM in test [2] (setting [8]) came out at 96%.

Regarding `CCCCCCCCCCCCCCCCCCOCC(COP(=O)([O-])OCCCCCCCCCC[N+](C)(C)C)OCC(C)=O` (stereo not drawn) [Example 18, 3-(Octadecyloxy)-2-(2-oxopropyloxy)propyl 10-trimethylammoniodecyl phosphate], in the test with platelet [4], the EC50 was over 100 µM. For the same compound, the inhibition at 30 µM in test [2] (setting [9]) stood at 100%.

Consider `CCCCCCCCCCCCCCCCCCOCC(COP(=O)([O-])OCCCCCCCCCC[N+](C)(C)C)OCC(=O)O` (stereo not drawn) [Example 46, 2-(Carboxymethyloxy)-3-(octadecyloxy)propyl 10-trimethylammoniodecyl phosphate], for which the responders at 0.33 mg in the test on Sarcoma 180 cells (setting [10]) is 0%. Besides, the response vs control in vivo at 0.33 mg in the test on Sarcoma 180 cells (setting [11]) turned out to be 335%. Further, in the test on MM46 cells (setting [7]), the responders at 0.25 mg is 20% and the response vs control in vivo at 0.25 mg amounted to 287%.

Consider `CCCCCCCCCCCCCCCCCCOCC(COP(=O)([O-])OCC[N+](C)(C)C)OC(=O)N(C)C` (stereo not drawn) [Compound (V)], for which, in the test on platelet [1] (background), the “platelet activating / platelet aggregation action (in words)” value is given as “remarkably strong platelet activating activity”.

The record behind these values is patent US4778912A, “Phospholipid derivatives” (priority 1985, dated 1988).
